PMC12087874, “Biaryl Phosphates and Phosphonates as Selective Inhibitors of the Transcription Factor STAT4” (Angewandte Chemie (International Ed. in English), 2025)
Numbering of substitutions follows the chain as printed.

How the values were obtained:
Assay type in all cases: binding
[1] = molecular target: T1, STAT4 Lys580Ala (Homo sapiens, UniProt Q14765, K580A); test: Isothermal titration calorimetry (ITC), STAT4 Lys580Ala; conditions: n = 4
T1 construct: 6xHis; made in house
T1 sequence (Q14765 1-748 K580A): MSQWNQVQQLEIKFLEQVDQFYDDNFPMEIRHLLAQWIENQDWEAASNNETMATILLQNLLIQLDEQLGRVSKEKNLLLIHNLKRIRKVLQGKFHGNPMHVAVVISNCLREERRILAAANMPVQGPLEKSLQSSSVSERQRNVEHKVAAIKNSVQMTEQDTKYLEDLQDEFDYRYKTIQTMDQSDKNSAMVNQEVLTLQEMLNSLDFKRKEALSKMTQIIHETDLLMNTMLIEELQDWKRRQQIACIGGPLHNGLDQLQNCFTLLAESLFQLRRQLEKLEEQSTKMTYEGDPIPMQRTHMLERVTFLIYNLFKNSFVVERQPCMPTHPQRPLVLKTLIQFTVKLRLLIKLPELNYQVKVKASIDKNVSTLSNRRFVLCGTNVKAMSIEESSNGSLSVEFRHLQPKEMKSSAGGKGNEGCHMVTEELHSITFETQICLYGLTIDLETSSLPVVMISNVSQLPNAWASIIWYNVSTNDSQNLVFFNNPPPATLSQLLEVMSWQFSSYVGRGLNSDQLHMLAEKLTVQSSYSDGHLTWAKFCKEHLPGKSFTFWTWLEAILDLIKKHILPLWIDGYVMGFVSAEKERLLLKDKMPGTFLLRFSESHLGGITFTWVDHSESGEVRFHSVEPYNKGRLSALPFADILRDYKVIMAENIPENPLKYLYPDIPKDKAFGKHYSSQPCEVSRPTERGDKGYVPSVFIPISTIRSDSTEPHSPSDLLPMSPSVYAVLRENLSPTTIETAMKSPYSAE
Experimental: Isothermal Titration Calorimetry
Purification of 6xHis-tagged proteins for ITC experiments was carried out by affinity chromatography on His-Bind resin. The eluting fractions were analyzed by SDS -PAGE.
Proteins were dialyzed against ITC buffer (10 mM Tris pH 8.0, 50 mM NaCl) using dialysi s tubing with a 50 kDa cut-off. ITC experiments were performed using a VP-ITC Micro Calorimeter (MicroCal). 6m was dissolved as a 100 mM stock in DMSO and diluted 1/1000 in ITC buffer (Tris pH 8.0 and 50 mM NaCl), resulting in a final concentration of 100 µM. 8k was dissolved as a 5 mM stock in ITC buffer and diluted 1/25 in ITC buffer with DMSO, resulting in a final concentration of 200 µM 8k. DMSO was added to a final concentration of 2% (v/v). To avoid errors caused by the detection of dilution heat, 0.1 % (v/v) DMSO for 6m or 2% (v/v) DMSO for 8k experiments was added to the buffers containing the proteins and to the reference buffer. Proteins were degassed before the experiments using a ThermoVac sample degassing station. The following conditions were used for ITC experiments: 10 µM STAT4 protein for 6m or 20 µM STAT4 protein for 8k experiments, 100 µM 6m or 200 µM 8k, 28 injections with 10 µL single injection volume, 250 s initial delay, 500 s spacing between injections, 250 µcal/s reference power, 300 rpm stirring at 25 °C for 6m or 220 rpm stirring at 25 °C for 8k. […]

[2] = molecular target: T2, STAT4 Arg598Ala (Homo sapiens, UniProt Q14765, R598A); test: Isothermal titration calorimetry (ITC), STAT4 Arg598Ala; conditions: n = 4
T2 construct: 6xHis; made in house
T2 sequence (Q14765 1-748 R598A): T1 sequence (Q14765 1-748 K580A) with A580K, R598A

[3] = molecular target: STAT3 (Homo sapiens, UniProt P40763); test: CETSA of STAT3 in lysates from NK-92 cells; parameters: endogenous in cells; host or cells: NK-92 (DSMZ) lysate
STAT3, sequence (P40763 whole entry): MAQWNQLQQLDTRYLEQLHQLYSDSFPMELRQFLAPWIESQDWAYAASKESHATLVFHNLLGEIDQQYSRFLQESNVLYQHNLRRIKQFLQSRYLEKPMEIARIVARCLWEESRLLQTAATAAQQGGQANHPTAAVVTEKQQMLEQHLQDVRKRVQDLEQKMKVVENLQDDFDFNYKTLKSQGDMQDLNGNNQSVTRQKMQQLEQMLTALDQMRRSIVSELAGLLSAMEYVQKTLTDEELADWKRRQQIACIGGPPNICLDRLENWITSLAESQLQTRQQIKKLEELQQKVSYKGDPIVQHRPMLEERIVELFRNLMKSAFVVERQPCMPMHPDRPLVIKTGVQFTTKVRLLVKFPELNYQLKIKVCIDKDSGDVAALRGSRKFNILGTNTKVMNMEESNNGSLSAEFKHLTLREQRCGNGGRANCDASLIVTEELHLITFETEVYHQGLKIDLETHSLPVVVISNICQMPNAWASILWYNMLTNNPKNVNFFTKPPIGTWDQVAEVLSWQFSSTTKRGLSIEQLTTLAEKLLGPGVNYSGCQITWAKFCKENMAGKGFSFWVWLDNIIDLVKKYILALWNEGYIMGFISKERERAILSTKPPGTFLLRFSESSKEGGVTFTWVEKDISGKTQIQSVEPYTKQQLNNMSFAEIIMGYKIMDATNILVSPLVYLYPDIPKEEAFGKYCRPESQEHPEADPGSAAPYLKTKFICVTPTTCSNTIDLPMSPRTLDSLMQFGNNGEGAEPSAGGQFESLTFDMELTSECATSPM
Experimental: NK-92 cells (DSMZ) were cultured in -MEM containing 12.5% fetal bovine serum (FBS), 12.5% horse serum, 2 mM L-glutamine, penicillin/streptomycin and 50 U/ml IL -2.
NK-92 cells were treated with test compound or DMSO in 1.5 ml medium in 12 -well plates (Corning) for 2 h (final DMSO concentration 0.2%), in the presence of 50 ng/ml IL -12 (PeproTech). […] Cells were harvested by washing twice with ice -cold TBS, followed by resuspension in TBS supplemented with protease/phosphatase inhibitors (100 ng/ml aprotinin, 1 mM Na3VO4, 10 mM NaF, 1 mM PMSF). […] Cells were lysed using three freeze -thaw cycles with liquid nitrogen and lysates cleared by centrif ugation.
NK-92 cell lysates were prepared for CETSA experiments by washing cultured cells once with TBS and resuspending in TBS supplemented with Halt Protease In hibitor Cocktail, EDTA-free (Fisher Scientific) at 3 x 10^6 cells per 100 µl. Cells were lysed using three freeze -thaw cycles with liquid nitrogen and lysates cleared by centrifugation.
CETSA experiments were performed essentially using the published protocol. […] Briefly, NK-92 cell lysates were incubated with test compound or DMSO for 15 min at room temperature (final DMSO concentration 2%). During this time, the treated lysate was divided into 10x 50 µl aliquots in 0.2 ml reaction tubes. Samples were then heated to the designated temperatures in a Veriti Pro Thermocycler (Thermo Fishe r Scientific) for 3 min, followed by 3 min incubation at room temperature, and then placed on ice. […] The soluble fractions were subsequently analyzed by Western blotting.
The components of cell lysates from treated cells, or heat-treated lysates from CETSA, were separated by SDS-PAGE (10%), transferred to nitrocellulose membrane (Bio-Rad) and detected using monoclonal rabbit primary antibodies (Cell Signaling), -rabbit-HRP secondary antibody (Dako) and Western Lightning Plus chemiluminescence reagent (Perkin Elmer).
Bands were visualized using an ImageQuant system (GE Healthcare) and quantitated using ImageJ software (NIH).

| SMILES | binding to STAT4 point mutant Lys580Ala (ITC) [1] | binding to STAT4 point mutant Arg598Ala (ITC) [2] | ΔT agg of STAT3 ([3]; CETSA, NK-92 cell lysates, versus DMSO control) [°C] | T agg of STAT3 ([3]; CETSA, NK-92 cell lysates, DMSO control 51.0 ± 0.3 °C, n = 3) [°C] | stabilization of STAT3 against thermal degradation ([3]; lysates from NK-92 cells, Ac-pYLPQTV-NH2 at 100 µM) |
| --- | --- | --- | --- | --- | --- |
| O=P(O)(O)Oc1ccc(-c2ccc3ccccc3c2)cc1F [Compound 6m] | too weak for reliable quantification | no heat release |  |  |  |
| Cc1cc(-c2ccc(C(F)(F)P(=O)(O)O)c(F)c2)cs1 [Compound 8k] |  |  | −0.4 | 50.6 ± 0.2 | does not stabilize |
